Results taken from PubChem BioAssay (NCI).
Several values for one entry are separate records, joined by “and”; a condition that tells them apart may be missing. Identical values can stand only once.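 Step 1: Grow cells in 96-well plates. Step 2: Expose to compound for 48 hours at 5 concentrations. Step 3: Interpolate endpoints linearly; if unreached, use highest concentration. Abbreviation: GI50, concentration required for 50% inhibition of growth. TGI is the concentration that stops growth completely.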 Peptide text beside a SMILES is read from it. * marks the point of attachment. Boc = CC(C)(C)OC(=O)*

Columns and labels:
Experiment in all cases: NCI tumour cell line growth inhibition, 48 h
OVCAR-3 ovarian = system: OVCAR-3 ovarian
IGROV1 ovarian = system: IGROV1 ovarian
CCRF-CEM leukemia = system: CCRF-CEM leukemia
K-562 leukemia = system: K-562 leukemia
TK-10 renal = system: TK-10 renal
SF-268 CNS = system: SF-268 CNS
MALME-3M melanoma = system: MALME-3M melanoma
UACC-62 melanoma = system: UACC-62 melanoma
NCI-H460 lung = system: NCI-H460 lung
KM12 colon = system: KM12 colon

SMILES	TGI (OVCAR-3 ovarian) [µM]	TGI (IGROV1 ovarian) [µM]	TGI (CCRF-CEM leukemia) [µM]	TGI (K-562 leukemia) [µM]	TGI (TK-10 renal)	TGI (SF-268 CNS) [µM]	TGI (MALME-3M melanoma) [µM]	TGI (UACC-62 melanoma)	TGI (NCI-H460 lung)	TGI (KM12 colon) [µM]	GI50 (OVCAR-3 ovarian) [µM]	GI50 (IGROV1 ovarian) [µM]	GI50 (CCRF-CEM leukemia) [µM]	GI50 (K-562 leukemia) [µM]	GI50 (SF-268 CNS) [µM]	GI50 (MALME-3M melanoma) [µM]	GI50 (NCI-H460 lung) [µM]	GI50 (KM12 colon) [µM]
COc1ccc([C@@]23CCC(=O)C[C@@H]2N(C)CC3)cc1OC	> 100	> 100	> 100	> 100	> 100 µM	> 100	> 100	> 100 µM	> 100 µM	> 100								
CC1=CC(c2ccccc2)n2c(nc3cc4ccccc4cc32)N1 (stereo unspecified)	> 100	> 100	> 100	> 100	> 100 µM	> 100	> 100	> 100 µM	> 100 µM	> 100								
CSCCC(NC(=O)C(CC(C)C)NC(=O)CNC(=O)OC(C)(C)C)C(=O)N(C)C (stereo not drawn) (Boc-Gly-Leu-Met-NMe2; configuration not given here)		> 100	> 100	> 100	> 100 µM	> 100	> 100	> 100 µM		> 100								
COC1(OC)/C(=C(\N)C=O)NC(C)(C)N1O	97.5	> 100	> 100	> 100			> 100	> 100 µM	> 100 µM	> 100								
O=C(CCN1CCCCC1CO)Nc1ccc2c(c1)C(=O)c1ccc(NC(=O)CCN3CCCCC3CO)cc1C2=O (stereo unspecified)		23.1	30.5	46.1	27.2 µM	40.6	18.8	23.6 µM	24.2 µM	17.1								
COc1ccc(CC2C(=O)NC(C)C(=O)N(C)C3Cc4ccc(cc4)Oc4cc(ccc4O)CC(C(=O)NC(C)C(=O)NC(C)C(=O)N2C)N(C)C3=O)cc1 (stereo unspecified)	0.0438	0.0203	0.122	2.01	0.979 µM and 0.21 µM			0.161 µM and 0.0223 µM	0.0284 µM and 0.106 µM and 0.0325 µM	0.127	0.000244	< 0.0001	< 0.0001	< 0.0001	< 0.0001	< 0.0001	0.000156	< 0.0001
CSC1(SC)CCCCCCCCCCC1	72.7	> 100	48.6	> 100	> 100 µM	> 100	70.9	> 100 µM	> 100 µM	> 100								
Cc1ccc(S(=O)(=O)NC(=O)NS(=O)(=O)O)cc1		> 100	> 100	> 100	> 100 µM	> 100	> 100	> 100 µM	> 100 µM	> 100								
C=CC1(CCC(Br)C(C)(C)Cl)CO1 (stereo unspecified)	> 10	> 10	> 10	> 10	> 10 µM	> 10	> 10		> 10 µM	> 10								
CSc1s[s+]c(SC)c1-c1ccccc1	37.6	> 100	81.4	50.3	32.4 µM	43	24.6	28.3 µM	> 100 µM	33.8								
CCOC(=O)Cc1nc2c(=O)[nH]cnc2n1C1OC(COC(C)=O)C(OC(C)=O)C1OC(C)=O (stereo unspecified)	> 100	> 100	> 100	> 100	> 100 µM	> 100	> 100	> 100 µM	> 100 µM	> 100								
COC(=O)c1cc2c3c(c(C(C)=O)c(OC)c2[nH]1)NCC3	> 50	> 50	> 50	> 50	> 50 µM	> 50	> 50	> 50 µM	> 50 µM	> 50								
C=C1C(=O)C[C@@]23CCC[C@@]12CC(O)C3 (stereo partly specified)	33.7	12.8	56.2	> 87		> 100	18.3	30.9 µM	54.1 µM	51.3								
Cc1nn(C(=O)c2ccccc2O)c2c1C(c1ccc(O)cc1)SC(N)=N2 (stereo unspecified)	> 6.89	> 7.17	> 10	> 3.53	> 10 µM	> 10	> 10	> 10 µM	> 10 µM	> 10								
COc1cc(O)c2c(c1)C(O)C(O)CC1OC1C(=O)/C=C/CC(C)OC2=O (stereo unspecified)	16.7	20.1	8.8	13.6	17.5 µM	46.3	6.91	3.2 µM	25.6 µM	27.1								
O=C(O)c1ccccc1-c1ccccc1C(=O)c1ccccc1	> 100	> 100	> 100	> 100	> 100 µM	> 100	> 100	> 100 µM	> 100 µM	> 100								
COc1ccc(C[C@H]2COC(=O)[C@@H]2Cc2cc(OC)c(OC)c(OC)c2)cc1OC	> 100	> 100	> 100	> 100	> 100 µM	> 100	> 100	> 100 µM	> 100 µM	> 100								
CNC(=O)OCC1=C(COC(=O)NC)CN(c2ccccc2)C1	> 100	> 100	> 100	> 100	> 100 µM	> 100	> 100	> 100 µM	> 100 µM	> 100								
C[C@@H](C[C@@H](O)[C@H](O)C(C)(C)O)[C@H]1CC=C2[C@]3(C)[C@H](O)C[C@H]4C(C)(C)[C@H](O)CC[C@]4(C)[C@H]3CC[C@@]21C	26.2	30.1	40.8	41.7	32.4 µM	32.2	28		30.2 µM	32.8								
Cc1cc(S(=O)(=O)NC(=NCC(=O)NN)NN)c(S)cc1Cl	> 10	> 10	> 10	> 10	> 10 µM	> 10	> 10	> 10 µM	> 10 µM	> 10								
CCCCCCCC(CC(=O)O)OC(=O)CC(CCCCCCC)OC1OC(C)C(O)C(O)C1OC1OC(C)C(O)C(O)C1O (stereo unspecified)	> 100	> 100	> 100	> 100		> 100	> 100	> 100 µM	> 100 µM	> 100								
